# Experimental data reported in PubChem BioAssay (NCI).
# Where “and” joins values, the source holds several entries; their conditions need not be identical. Identical values can stand only once.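 Dose response: 5 concentrations. Exposure: 48 h. Format: 96-well plates. Endpoint: linear interpolation; highest concentration if not reached. GI50 is the concentration that inhibits growth by half. At the TGI there is no net growth.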
# Key:
# Experiment in all cases: DTP human tumour cell line panel, 48 h
# [1] = tested on: CCRF-CEM leukemia
# [2] = tested on: HOP-62 NSCLC
# [3] = tested on: MDA-MB-231 breast
# [4] = tested on: RXF 393 renal
# [5] = tested on: SF-268 CNS
# [6] = tested on: SW-620 colon
# [7] = tested on: TK-10 renal
# [8] = tested on: SN12C renal
# [9] = tested on: MOLT-4 leukemia
# [10] = tested on: SF-539 CNS
smiles,measurement,setting,value
C#CCCCC(=O)N(C(=O)CS(=O)CC)c1ccccc1 (configuration not stated),TGI,[1],> 100 µM
same,TGI,[2],> 100 µM
same,TGI,[3],> 100 µM
same,TGI,[4],> 100 µM
same,TGI,[5],> 100 µM
same,TGI,[6],> 100 µM
same,TGI,[7],> 100 µM
same,TGI,[8],> 100 µM
same,TGI,[9],> 100 µM
same,TGI,[10],> 100 µM
CC(=O)C1(O)Cc2c(O)c3c(c(O)c2C(OC2CC(N)C(O)C(C)O2)C1)C(=O)c1ccccc1C3=O (configuration not stated),GI50,[1],0.00214 µM
same,GI50,[2],< 0.0126 µM
same,TGI,[2],0.275 µM and 0.118 µM
same,GI50,[3],0.0948 µM
same,TGI,[3],1.22 µM
same,GI50,[4],0.15 µM and 0.0166 µM
same,TGI,[4],0.553 µM and 0.0785 µM
same,GI50,[5],0.0259 µM
same,TGI,[5],0.343 µM and 0.233 µM
same,GI50,[6],< 0.0114 µM
same,TGI,[6],0.597 µM and 0.262 µM
same,TGI,[7],0.158 µM
same,GI50,[8],< 0.0117 µM
same,TGI,[8],0.115 µM and 0.163 µM
same,GI50,[9],0.00182 µM
same,TGI,[9],0.0122 µM and < 0.109 µM
same,GI50,[10],0.0116 µM
same,TGI,[10],0.199 µM and 0.0511 µM
C=CCN1CCC2(CC1)NC(=O)c1ccccc1O2,TGI,[1],> 100 µM
same,TGI,[2],> 100 µM
same,TGI,[3],> 100 µM
same,TGI,[4],> 100 µM
same,TGI,[5],> 100 µM
same,TGI,[6],> 100 µM
same,TGI,[7],> 100 µM
same,TGI,[8],> 100 µM
same,TGI,[9],> 100 µM
same,TGI,[10],> 100 µM
CC1=CC(=O)/C(=C/n2c(=S)[nH]c3ccccc32)C(=O)O1,TGI,[1],> 100 µM
same,TGI,[2],> 100 µM
same,TGI,[3],> 100 µM
same,TGI,[4],> 100 µM
same,TGI,[5],> 100 µM
same,TGI,[6],> 100 µM
same,TGI,[7],> 100 µM
same,TGI,[8],> 100 µM
same,TGI,[9],> 100 µM
same,TGI,[10],> 100 µM
Cc1sc2nc3n(c(=O)c2c1C)N=C(c1ccc([N+](=O)[O-])cc1)CS3,TGI,[1],> 100 µM
same,TGI,[2],> 100 µM
same,TGI,[3],> 100 µM
same,TGI,[4],> 100 µM
same,TGI,[5],> 100 µM
same,TGI,[6],> 100 µM
same,TGI,[8],> 100 µM
same,TGI,[9],> 100 µM
same,TGI,[10],> 100 µM
O=[N+]([O-])c1cc(Cl)ccc1S(=O)(=O)N1CCCc2cc(Cl)ccc21,TGI,[1],> 100 µM
same,TGI,[2],> 100 µM
same,TGI,[3],> 100 µM
same,TGI,[4],> 100 µM
same,TGI,[5],> 100 µM
same,TGI,[6],> 100 µM
same,TGI,[7],> 100 µM
same,TGI,[8],> 100 µM
same,TGI,[9],> 100 µM
same,TGI,[10],> 100 µM
COc1cccc(-c2cc(=O)c3cc(Cl)cnc3[nH]2)c1,TGI,[1],> 100 µM
same,TGI,[2],9.84 µM
same,TGI,[3],> 65.5 µM
same,TGI,[4],> 100 µM
same,TGI,[5],> 87.3 µM
same,TGI,[6],> 100 µM
same,TGI,[7],> 89.9 µM
same,TGI,[8],> 100 µM
same,TGI,[9],28.3 µM
same,TGI,[10],2.56 µM
C/C=C1\CC(C(=O)OCC)CCCCCCCCCCC1=O (configuration not stated),TGI,[1],> 100 µM
same,TGI,[2],> 100 µM
same,TGI,[3],> 100 µM
same,TGI,[4],> 100 µM
same,TGI,[5],> 100 µM
same,TGI,[6],> 100 µM
same,TGI,[7],> 100 µM
same,TGI,[8],> 100 µM
same,TGI,[9],> 100 µM
same,TGI,[10],> 100 µM
OC1c2ccccc2C(O)C2OC12 (configuration not stated),TGI,[1],> 100 µM
same,TGI,[2],> 100 µM
same,TGI,[3],> 100 µM
same,TGI,[4],> 100 µM
same,TGI,[5],> 100 µM
same,TGI,[6],> 100 µM
same,TGI,[7],> 100 µM
same,TGI,[8],> 100 µM
same,TGI,[9],> 100 µM
same,TGI,[10],> 100 µM
